pKi: −log10 of the molar value. Read-outs that look alike come from different tables or passages of the source.

Data on 1 compound can be found in publication PMC7616177, “From structure to clinic: Design of a muscarinic M1 receptor agonist with the potential to treat Alzheimer’s disease” (Cell, 2021).

One series addresses T1, M4-receptor (Homo sapiens, UniProt P08173).
T1 sequence (P08173 1-479): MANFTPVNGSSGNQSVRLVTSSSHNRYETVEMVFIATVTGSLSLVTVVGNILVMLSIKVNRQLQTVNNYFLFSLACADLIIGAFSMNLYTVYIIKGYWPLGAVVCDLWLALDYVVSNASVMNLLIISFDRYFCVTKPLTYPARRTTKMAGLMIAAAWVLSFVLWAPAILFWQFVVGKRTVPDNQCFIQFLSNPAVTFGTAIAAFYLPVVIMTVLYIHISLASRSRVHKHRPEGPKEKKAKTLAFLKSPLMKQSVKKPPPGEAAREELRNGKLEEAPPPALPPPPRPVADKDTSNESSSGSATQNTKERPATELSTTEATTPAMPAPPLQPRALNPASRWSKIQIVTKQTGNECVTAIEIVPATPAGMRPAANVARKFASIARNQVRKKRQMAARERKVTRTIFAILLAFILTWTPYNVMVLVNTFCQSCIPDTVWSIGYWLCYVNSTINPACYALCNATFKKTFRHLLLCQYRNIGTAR
Kind of series: [3H]-NMS equilibrium radioligand binding, M4. The method, then:
(§1) Non-specific binding (NSB) was determined in the presence of 1 μM atropine). Reactions were terminated by rapid filtration onto GF/B filter paper (Whatman, Maidstone, UK) and three washes with 3 mL ice-cold 0.9% NaCl using a Brandel harvester (M-24TI; Brandel, Fort Lauderdale, FL). Membrane bound radioactivity was determined by liquid scintillation (Ultima Gold; PerkinElmer) counting.
(§2) Data was analyzed using PRISM (GraphPad). For saturation binding, non-specific and total binding data were analyzed to a one site binding model. DPM was converted to fmol/mg to compare across constructs. […] […] The Cheng Prusoff equation was used to estimate pKi ([Cheng and Prusoff, 1973]).

A short description of series [1]: Human plasma and CSF pharmacokinetics after single oral dose. The format is in vivo. Conditions: single 54 mg oral dose.
The next series relates to Wistar rats. The experiment in a line: Novel object recognition. Format: in vivo, rat. The method, then: Male adult Wistar rats (Harlan, UK; approximately 11 weeks of age) were handled for two days prior to the experiment. […] Donepezil (0.1 mg/kg) and galanthamine (3 mg/kg) were administered via intraperitoneal injection (in saline) 60 min prior to training. Following a 10-min habituation period, each rat was placed into the test arena comprising an open-field arena in the presence of two identical plastic shapes and allowed to explore for 5 min. The rat was then returned to its home cage. After 24 hours, the rat was returned to the test arena in the presence of one familiar object, and one novel object. The time exploring each object was recorded using image analysis software (Ethovision XT, Noldus, UK).

The target in another series is T2, human M1 receptor (Homo sapiens, UniProt P11229).
T2 construct: expressed in transfected cells
T2 sequence (P11229 1-460): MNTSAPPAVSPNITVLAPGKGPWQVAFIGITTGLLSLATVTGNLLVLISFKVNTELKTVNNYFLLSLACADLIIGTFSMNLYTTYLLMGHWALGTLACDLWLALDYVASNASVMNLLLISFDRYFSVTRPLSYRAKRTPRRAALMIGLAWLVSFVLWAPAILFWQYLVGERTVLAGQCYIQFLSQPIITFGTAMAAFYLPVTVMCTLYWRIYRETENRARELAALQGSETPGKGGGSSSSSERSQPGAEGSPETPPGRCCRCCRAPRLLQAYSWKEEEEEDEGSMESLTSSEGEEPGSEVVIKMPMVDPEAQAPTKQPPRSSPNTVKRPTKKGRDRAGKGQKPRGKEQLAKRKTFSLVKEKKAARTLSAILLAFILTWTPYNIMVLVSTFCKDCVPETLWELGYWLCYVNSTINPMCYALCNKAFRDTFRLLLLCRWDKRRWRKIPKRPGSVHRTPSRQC
The experiment in a line: [3H]-NMS equilibrium radioligand binding, M1. Here is the method:
as §1, §2

A further series deals with healthy volunteers. The experiment in a line: Clinical EEG/ERP P300 active auditory oddball paradigm. Format: in vivo. The settings on record: human multiple dosing, high exposure group, day 9. Here is the method: Routine EEG was performed for all subjects during screening enrolled in the multiple ascending dose study to avoid enrolling subjects showing clinically significant abnormalities. 19-lead EEG recordings were employed for quantitative (qEEG) analyses. qEEGs were are recorded in resting state with alternating 30 s eyes open and 30 s eyes closed for 5 min first and then about 5 min eyes closed. The P50 protocol employed a series of “click pairs.” The interval between click pairs is at random between 6 to 10 s (Stimuli S1 and S2, 1000 Hz, duration 3 ms, 80 dB sound pressure level [SPL], stimulus onset asynchrony [SOA] = 500 ms, The MMN protocol used twelve different frequencies ranging in 50 Hz steps from 700 to 1250 Hz delivered binaurally via special headphones or earphones. All stimuli were presented with a constant SOA of 300 ms in a pseudo-randomized order assuming a frequency deviation of one train to another of at least 100 Hz with three different lengths/durations of series which occurred evenly. For the P300 active auditory oddball paradigm sinusoidal tones of 90 dB SPL intensity and 50 ms duration were delivered binaurally in an inter-stimulus-interval of 1000 msec. The standard stimulus, a low frequency tone (1000 Hz) appeared with a frequency of 85%. […]

In general, pKi refers to the negative decadic logarithm of the Ki, by convention in mol/L. Lower therefore signals a high Ki. `CCOC(=O)N1CCC[C@H](N2CCC(C(=O)NC3(C)CCC3)CC2)CC1` [HTL9936, ethyl (S)-4-(4-((1-methylcyclobutyl)carbamoyl)piperidin-1-yl)azepane-1-carboxylate]: the pKi at M4-receptor is 5.40; on human M1 receptor it was 4.70. In addition, the Tmax was 2 to 3 h in series [1] (CSF, read-out: Time of maximum concentration in CSF) and approximately 0.5 h in series [1] (plasma, read-out: Plasma tmax). Further, the Effective dose in the series on Wistar rats (rat novel object recognition, p.o.) amounted to 10 mg/kg. In the series with Wistar rats (rat, 10 mg/kg p.o.), the “Effect compared with positive controls donepezil and galantamine” value was “significantly better than the positive controls”. In the series with healthy volunteers, the “P300 deviant amplitude at electrodes Fz and Cz” value is “significant within- and between-group effects for deviant amplitude”.
